In PMC2685009, “Identification and Characterization of Inhibitors of Human Apurinic/apyrimidinic Endonuclease APE1” (PLoS ONE, 2009):

Experiments:
[1] = set-up: method as in PMID 7019686; conditions: cited from earlier work
[2] = tested on: AP site cleavage activity of HEK 293T whole cell extract; test: Whole cell extract AP endonuclease activity assay (HEK 293T); format: biochemical, human; conditions: inhibitor at 100 µM
Experimental: (§1) The radiotracer assay was performed essentially as described. In brief, prioritized candidate inhibitor compounds from the qHTS assay were incubated at various concentrations (100 µM data shown) with APE1 (100 pg) at room temperature for 15 min in 25 mM Tris pH 7.5, 25 mM NaCl, 1 mM MgCl2, 1 mM DTT and 0.01% Tween-20. At that time, 0.5 pmol ^32P-radiolabeled THF-containing 34 mer double-stranded DNA substrate was added. Incision reactions were then carried out immediately at 37°C for 10 min in a final volume of 10 µL. After the addition of an equal volume of stop buffer (0.05% bromophenol blue and xylene cynol, 20 mM EDTA, 95% formamide), the radiolabeled substrate and product were separated on a standard polyacrylamide denaturing gel and quantified by phosphorimager analysis.
(§2) HEK 293T or HeLa cells – maintained in DMEM with 10% fetal bovine serum and 1% Penicillin-Streptomycin – were harvested, washed with 1× PBS, re-suspended in cold 222 mM KCl, incubated on ice for 30 min, and clarified by centrifugation at 12,000×g for 15 min at 4°C [23]. The supernatant (whole cell extract) was retained, the protein concentration determined using the Bio-Rad Bradford reagent, and aliquots were stored at −80°C. AP endonuclease activity assays were performed with or without candidate inhibitor compounds as described above, except 60 ng HEK 293T or 80 ng of HeLa whole cell extract was used.

[3] = biological target: T1, APE1 (Homo sapiens, UniProt P27695); test: qHTS fluorogenic AP site incision assay (TAMRA/BHQ-2 red substrate, 1536-well); format: biochemical; conditions: 50 nM substrate, 0.75 nM APE1; read-out: qHTS IC50 (primary screen, APE1)
T1 construct: made in house
T1 sequence (P27695 whole entry): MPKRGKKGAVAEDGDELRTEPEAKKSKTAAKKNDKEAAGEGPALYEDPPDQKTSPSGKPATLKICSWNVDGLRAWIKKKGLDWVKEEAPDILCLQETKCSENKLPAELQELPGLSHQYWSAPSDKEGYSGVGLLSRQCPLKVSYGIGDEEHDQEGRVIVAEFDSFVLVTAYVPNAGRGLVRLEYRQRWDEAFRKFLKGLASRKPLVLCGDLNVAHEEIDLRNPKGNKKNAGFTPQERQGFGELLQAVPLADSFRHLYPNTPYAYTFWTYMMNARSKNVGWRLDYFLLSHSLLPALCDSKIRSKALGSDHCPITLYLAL
Experimental: Recombinant human APE1 and E. coli EndoIV were purified as previously described. Deoxyoligonucleotides containing a tetrahydrofuran (THF) AP site analog, carboxytetramethyl rhodamine (TAMRA), or Black Hole Quencher-2 (BHQ-2), as appropriate (see Figure 1), were purchased from Biosearch Technologies, Inc., (Novato, CA). To create double-stranded DNA substrates, equal volumes of 200 µM solutions of the respective strands in reaction buffer were mixed and incubated at 95°C for 5 min. The annealing mixture was allowed to cool gradually to room temperature. Annealing and assay experiments were performed in the following buffer: 50 mM Tris pH 7.5, 25 mM NaCl, 2 mM MgCl2, 1 mM DTT, 0.01% Tween-20.
Initial optimizations were carried out in 384-well format at a 40 µL total reaction volume. Briefly, 30 µL of APE1 were pipetted into the plate and incubated at room temperature for 10 min; subsequently, 10 µL of substrate were added to start the reaction. The final assay concentrations of the enzyme and substrate were 0.75 nM and 50 nM, respectively. Kinetic fluorescence data were collected on a ViewLux high-throughput CCD imager (Perkin Elmer, Waltham, MA) equipped with standard FITC (excitation filter 480 nm and emission filter 530 nm) or BODIPY (excitation filter 525 nm and emission filter 598 nm) optics.
Three µl of reagents (buffer in columns 3 and 4 as negative control and APE1 in columns 1, 2, 5–48) were dispensed into a 1536-well plate. Compounds (DMSO solutions) and control (DMSO only) (23 nL) were transferred via Kalypsys pintool equipped with 1536-pin array. The plate was incubated for 15 min at room temperature, and then 1 µL of substrate (50 nM final concentration) was added to start the reaction. Library plates were screened from the lowest to highest concentration.
Screening data were corrected and normalized, and concentration–effect relationships were derived by using in-house developed, publicly available algorithms (http://www.ncgc.nih.gov/pub/openhts/curvefit/). Percent activity was computed after normalization against the uninhibited, or neutral, control (64 wells, entire columns 1 and 2) and the no-enzyme, or 100% inhibited, control (64 wells, entire columns 3 and 4), respectively. A four parameter Hill equation was fitted to the concentration-response data by minimizing the residual error between the modeled and observed responses.

[4] = biological target: unlabeled double-stranded DNA substrate; test: ThO dye-displacement assay (DNA binding); conditions: 50 nM DNA, 250 nM ThO
[5] = biological target: T1, APE1; test: Radiotracer (32P, gel-based) incision assay; format: biochemical; conditions: range of inhibitor concentrations, data not shown; read-out: approximate IC50 in radiotracer assay
[6] = tested on: HeLa cells; test: AP site measurement in chromosomal DNA; format: cell-based, human
Experimental: HeLa cells were treated as above, except only at 5 µM inhibitor where indicated. Following exposure, chromosomal DNA was isolated and steady-state AP site levels were measured using the DNA Damage Quantification Kit from Dojindo Molecular Technologies, Inc. (Gaithersburg, MD) as previously described.

[7] = tested on: AP site cleavage activity of HeLa whole cell extract; test: Whole cell extract AP endonuclease activity assay (HeLa); format: biochemical, human; conditions: inhibitor at 100 µM
Experimental: as §1, §2

[8] = biological target: T2, E. coli EndoIV (Escherichia coli, UniProt P0A6C1); test: E. coli Endonuclease IV (EndoIV) profiling assay; format: biochemical
T2 construct: made in house
Experimental: EndoIV enzyme and substrate (same as that used with APE1) optimization tests were initially performed at a 40 µL final volume in a 384-well format. Reaction concentrations of 2 nM EndoIV and 50 nM DNA substrate were selected for subsequent experiments. For running the assay in 1536-well format, the same protocol as described for APE1 above was followed.

With `O=c1c(O)c(-c2cc(O)c(O)c(O)c2)oc2cc(O)cc(O)c12` [myricetin] as the compound, how does the “mutagenesis in the Ames Test” value [1] read?
The value was “promote mutagenesis”.

And the “inhibition of total AP site cleavage activity” value [2]?
The value was no less than 80%.

And the IC50 [3]?
The IC50 was 320 nM.

And the IC50 [4]?
The IC50 was 3500 nM.

And the IC50 [5]?
The IC50 was less than 500 nM.

And the “AP site damage, inhibitor alone” value ([6]; 5 µM inhibitor alone, relative to control cells)?
The value was “increased AP site damage relative to the control cells”.

What about the “AP site damage, inhibitor plus MMS” value ([6]; 5 µM inhibitor plus MMS) of the same compound?
The value was “potentiated the genotoxic potential of MMS”.

And the “inhibition of total AP site cleavage activity” value [7]?
The value was no less than 80%.

And the “activity against EndoIV compared with APE1 (in words)” value [8]?
The value was “completely inactive or weakly active”.

And the IC50 ([8]; 2 nM EndoIV, 50 nM substrate, read-out: Endo IV IC50 (E. coli EndoIV profiling))?
The IC50 was greater than 57000 nM.
